Measurements from US9650339B2, “Inhibitors of histone demethylases” (Gilead Sciences, Inc., priority 2013, dated 2017).

Columns and labels:
KDM4C = biological target: T1, KDM4C (Homo sapiens, UniProt Q9H3R0); assay: Histone lysine demethylase immunofluorescence assay, U2OS cells transfected with KDM4C; format: cell-based; settings: U2OS cells transfected with pCMVHA KDM4C; mark detected H3K9me3; 20 hours
T1 construct: Full length; host or cells: U2OS
T1 sequence (Q9H3R0 1-1056): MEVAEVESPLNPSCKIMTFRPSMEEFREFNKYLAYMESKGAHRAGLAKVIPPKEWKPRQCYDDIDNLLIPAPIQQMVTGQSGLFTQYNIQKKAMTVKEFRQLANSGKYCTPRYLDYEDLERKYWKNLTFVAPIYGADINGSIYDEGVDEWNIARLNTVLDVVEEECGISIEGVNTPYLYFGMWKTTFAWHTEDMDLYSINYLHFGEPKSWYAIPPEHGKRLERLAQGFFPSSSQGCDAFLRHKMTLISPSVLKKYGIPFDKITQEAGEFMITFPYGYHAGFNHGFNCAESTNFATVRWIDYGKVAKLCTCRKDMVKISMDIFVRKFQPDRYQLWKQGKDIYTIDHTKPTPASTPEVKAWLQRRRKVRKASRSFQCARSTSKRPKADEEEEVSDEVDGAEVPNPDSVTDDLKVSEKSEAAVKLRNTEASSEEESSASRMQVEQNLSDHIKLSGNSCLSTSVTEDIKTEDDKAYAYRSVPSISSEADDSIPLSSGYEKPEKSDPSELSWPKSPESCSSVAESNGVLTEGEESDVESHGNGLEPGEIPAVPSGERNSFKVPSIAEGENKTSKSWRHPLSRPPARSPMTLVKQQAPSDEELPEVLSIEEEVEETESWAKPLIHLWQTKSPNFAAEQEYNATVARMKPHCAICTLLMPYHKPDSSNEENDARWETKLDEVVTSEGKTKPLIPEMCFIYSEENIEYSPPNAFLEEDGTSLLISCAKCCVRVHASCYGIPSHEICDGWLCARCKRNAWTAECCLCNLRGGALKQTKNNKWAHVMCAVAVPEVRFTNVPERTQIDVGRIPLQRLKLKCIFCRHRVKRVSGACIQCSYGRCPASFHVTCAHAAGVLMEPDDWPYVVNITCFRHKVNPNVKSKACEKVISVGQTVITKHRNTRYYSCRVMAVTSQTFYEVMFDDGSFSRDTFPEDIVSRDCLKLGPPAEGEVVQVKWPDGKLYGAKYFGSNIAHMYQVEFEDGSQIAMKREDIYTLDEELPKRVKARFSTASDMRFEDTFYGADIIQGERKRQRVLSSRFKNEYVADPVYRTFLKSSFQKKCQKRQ
How it was run: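 U2OS cells were transiently transfected with HA-tagged demethylase and reseeded after 6 h into compound-containing DMEM/10% FBS for 20 h. Cells were fixed in formaldehyde and immunostained for HA and the relevant histone methyl mark, then imaged. IC50 is based on mean mark staining in HA+ transfected cells.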

KDM4A (JMJD2A) = biological target: T2, KDM4A (JMJD2A) (Homo sapiens, UniProt O75164); assay: Histone lysine demethylase AlphaLISA assay, KDM4A; format: biochemical; settings: read-out: KDM4A HDME Inhibition IC50
T2 construct: 1-350; purchased BPS Bioscience, US; host or cells: E. coli
T2 sequence (O75164 1-350): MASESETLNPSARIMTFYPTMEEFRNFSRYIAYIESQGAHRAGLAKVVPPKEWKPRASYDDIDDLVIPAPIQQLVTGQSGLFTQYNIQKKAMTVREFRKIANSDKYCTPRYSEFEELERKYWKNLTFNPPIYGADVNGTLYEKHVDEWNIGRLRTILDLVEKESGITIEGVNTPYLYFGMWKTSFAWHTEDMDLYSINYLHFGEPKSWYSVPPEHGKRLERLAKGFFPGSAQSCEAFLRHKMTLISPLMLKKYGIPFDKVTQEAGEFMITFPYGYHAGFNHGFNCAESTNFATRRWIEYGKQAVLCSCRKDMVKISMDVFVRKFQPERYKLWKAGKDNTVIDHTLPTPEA
Description: Assays are performed analogously to the protocol described by PerkinElmer (Roy et al. PerkinElmer Technical Note: AlphaLISA #12, April 2011)
Enzymes are dissolved in enzyme buffer and incubated for 10 min before being added to 3% DMSO solutions of compounds in enzyme buffer. Incubated for another 10 minutes, before substrate solution is added and the reaction mixture is incubated at room temperature. 10 μL acceptor beads, suspended in Epigenetic Buffer (Perkin Elmer AL008) from stock, are added and the suspension is incubated in the dark at room temperature, before a suspension of streptavidin donor beads (Perkin Elmer 6760002) in Epigenetic Buffer is added. After incubation at room temperature in the dark the plates are read.
BK9M3: Biotin-ARTKQTAR(KMe3)STGGKAPRKQ-NH2 (Caslo, Denmark) […]
Substrate Solution: Substrate, 25 μM L-Asc, and 10 μM α-KG in Buffer A.

KDM7 (PHF8) = biological target: T3, KDM7 (PHF8) (Homo sapiens, UniProt Q9UPP1); assay: Histone lysine demethylase AlphaLISA assay, KDM7; format: biochemical; settings: read-out: PHF8 HDME Inhibition IC50
T3 construct: KDM7 (PHF8); BRIC; 1-1322; Bac
T3 sequence (Q9UPP1 37-440 limits assumed): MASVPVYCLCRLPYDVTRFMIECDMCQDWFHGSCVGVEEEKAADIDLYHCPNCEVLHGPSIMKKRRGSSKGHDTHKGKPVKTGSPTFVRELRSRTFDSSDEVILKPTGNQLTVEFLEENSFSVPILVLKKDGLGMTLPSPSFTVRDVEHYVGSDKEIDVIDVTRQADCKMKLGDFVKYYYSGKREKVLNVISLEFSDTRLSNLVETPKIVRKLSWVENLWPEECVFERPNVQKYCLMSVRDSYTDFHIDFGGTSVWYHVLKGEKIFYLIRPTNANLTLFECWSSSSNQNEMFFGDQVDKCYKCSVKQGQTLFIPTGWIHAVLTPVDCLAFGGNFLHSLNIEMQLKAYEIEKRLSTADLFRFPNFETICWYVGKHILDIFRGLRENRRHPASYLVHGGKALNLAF
How it was run: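 Each enzyme was pre-incubated 10 min in buffer, then 10 min with compound in 3% DMSO solution. The reaction started with biotinylated histone H3 peptide substrate plus 25 μM L-ascorbate and 10 μM α-KG at room temperature. Detection used AlphaLISA acceptor beads, then streptavidin donor beads, in the dark.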

SMILES | IC50 (KDM4C) [nM] | IC50 (KDM4A (JMJD2A)) [nM] | IC50 (KDM7 (PHF8)) [nM]
CN(C)CCC/N=C/c1ccnc(CNCCCN(C)C)c1 [Compound 37, [3-(dimethylamino)propyl]-({4-[{[3-(dimethylamino)propyl]-imino}methyl]pyridin-2-yl}methyl)amine] | 250 to 2500 | > 2500 | > 2500
CN(C)CCCNCc1cc(/C=N/CCN(C)C)ccn1 [Compound 38, ({4-[{[2-(dimethylamino)ethyl]-imino}methyl]pyridin-2-yl}methyl)[3-(dimethylamino)-propyl]amine] | > 2500 | > 2500 | > 2500
CCSCCNCc1cc(/C=N/C2CC2)ccn1 [Compound 39, N-{[2-({[2-(ethylsulfanyl)-ethyl]amino}methyl)pyridin-4-yl]methylidene}-cyclopropanamine] | > 2500 | 250 to 2500 | < 250
CN1CCCC1CCNCc1cc(/C=N/C2CC2)ccn1 (stereo not drawn) [Compound 40, N-{[2-({[2-(l-methylpyrrolidin-2-yl)ethyl]amino}methyl)-pyridin-4-yl]methylidene}-cyclopropanamine] | 250 to 2500 | > 2500 | > 2500
CN(CCCNCc1cc(/C=N/C2CC2)ccn1)Cc1ccccc1 [Compound 41, N-({2-[({3-[benzyl(methyl)amino]-propyl}amino)methyl]-pyridin-4-yl}methylidene)-cyclopropanamine] | 250 to 2500 | < 250 | > 2500
C(=N/C1CC1)/c1ccnc(CNCCCN2CCCC2)c1 [Compound 42, N-{[2-({[3-(pyrrolidin-1-yl)propyl]amino}-methyl)pyridin-4-yl]methylidene}-cyclopropanamine] | 250 to 2500 | > 2500 | > 2500
CN(C)C/C=C/CNCc1cc(/C=N/C2CC2)ccn1 [Compound 43, N-{[2-({[(2E)-4-(dimethylamino)but-2-en-1-yl]amino}-methyl)pyridin-4-yl]methylidene}-cyclopropanamine] | 250 to 2500 | 250 to 2500 | 250 to 2500
CN(C)CCCCNCc1cc(/C=N\C2CC2)ccn1 [Compound 45, N-{[2-({[4-(dimethylamino)butyl]-amino}methyl)-pyridin-4-yl]methylidene}-cyclopropanamine] | 250 to 2500 | > 2500 | > 2500
CN(C)CC1CCC(CNCc2cc(/C=N/C3CC3)ccn2)CC1 (stereo not drawn) [Compound 46, N-[(2-{[({4-[(dimethylamino)-methyl]cyclohexyl}-methyl)amino]-methyl}pyridin-4-yl)methylidene]-cyclopropanamine] | 250 to 2500 | 250 to 2500 | > 2500
CN(C)CCCCCNCc1cc(/C=N/C2CC2)ccn1 [Compound 47, N-{[2-({[5-(dimethylamino)-pentyl]amino}-methyl)pyridin-4-yl]methylidene}-cyclopropanamine] | 250 to 2500 | > 2500 | > 2500
CCN(CC)CCCCNC(=O)CNCc1cc(/C=N/C2CC2)ccn1 [Compound 48, 2-[({4-[N-cyclopropyl-carboximidoyl]pyridin-2-yl}methyl)amino]-N-[4-(diethylamino)-butyl]acetamide] | > 2500 | < 250 | < 250
O=C(CNCc1cc(/C=N/C2CC2)ccn1)N1CCC[C@@H]1CN1CCCC1 [Compound 49, 2-[({4-[N-cyclopropyl-carboximidoyl]pyridin-2-yl}methyl)amino]-1-[(2R)-2-(pyrrolidin-1-ylmethyl)pyrrolidin-1-yl]ethan-1-one] | 250 to 2500 | < 250 | 250 to 2500
CCN(CCC#N)C(=O)CNCc1cc(/C=N/C2CC2)ccn1 [Compound 50, N-(2-cyanoethyl)-2-[({4-[N-cyclopropyl-carboximidoyl]-pyridin-2-yl}methyl)amino]-N-ethylacetamide] | > 2500 | < 250 | < 250
CCN1CCCC1CNC(=O)CNCc1cc(/C=N/C2CC2)ccn1 (stereo not drawn) [Compound 51, 2-[({4-[N-cyclopropyl-carboximidoyl]-pyridin-2-yl}methyl)-amino]-N-[(1-ethylpyrrolidin-2-yl)methyl]acetamide] | > 2500 | 250 to 2500 | 250 to 2500
O=C(CNCc1cc(/C=N/C2CC2)ccn1)NC1CCN(Cc2ccccc2)C1 (stereo not drawn) [Compound 53, N-(1-benzylpyrrolidin-3-yl)-2-[({4-[N-cyclopropyl-carboximidoyl]pyridin-2-yl}methyl)amino]-acetamide] | > 2500 | < 250 | < 250
CN1CCN(C(=O)CNCc2cc(/C=N/C3CC3)ccn2)CC1 [Compound 54, 2-[({4-[N-cyclopropyl-carboximidoyl]-pyridin-2-yl}methyl)amino]-1-(4-methylpiperazin-1-yl)ethan-1-one] | > 2500 | 250 to 2500 | > 2500
O=C(CNCc1cc(/C=N/C2CC2)ccn1)N1CCC(Cc2ccccc2)CC1 [Compound 55, 1-(4-benzylpiperidin-1-yl)-2-[({4-[N-cyclopropyl-carboximidoyl]-pyridin-2-yl}methyl)amino]-ethan-1-one] | > 2500 | 250 to 2500 | 250 to 2500
C#CCN(C)C(=O)CNCc1cc(/C=N/C2CC2)ccn1 [Compound 56, 2-[({4-[N-cyclopropyl-carboximidoyl]-pyridin-2-yl}methyl)amino]-N-methyl-N-(prop-2-yn-1-yl)acetamide] | > 2500 | 250 to 2500 | 250 to 2500
CCN(CC)CCCCNCc1cc(/C=N/CCO)ccn1 [Compound 61, 2-[{[2-({[4-(diethylamino)-butyl]amino}-methyl)pyridin-4-yl]methylidene}-amino]ethan-1-ol] | 250 to 2500 | > 2500 | > 2500
CCN(CC)CCCCNCc1cc(/C=N/CC(F)(F)C(F)(F)F)ccn1 [Compound 62, {[2-({[4-(diethylamino)-butyl]amino}methyl)pyridin-4-yl]methylidene} (2,2,3,3,3-pentafluoropropyl)-amine] | 250 to 2500 | > 2500 | > 2500
CCN(CCN(C)C)C(=O)CNCc1cc(/C=N/CCC2CCCCC2)ccn1 [Compound 63, 2-[({4-[[(2-cydohexylethyl)-imino]methyl]pyridin-2-yl}methyl)amino]-N-[2-(dimethylamino)-ethyl]-N-ethylacetamide] | 250 to 2500 | > 2500 | > 2500
CON=Cc1ccnc(CNCCCN(C)C)c1 [Compound 64, [3-(dimethylamino)-propyl]({4-[(methoxyimino)-methyl]pyridin-2-yl}methyl)amine] | > 2500 | 250 to 2500 | > 2500
